The values that follow come from patent publication US7947738B2, “Bicyclic γ-amino acid derivative” (Daiichi Sankyo Company, Ltd., priority 2007, dated 2011).

Structures can show the parent of a compound that is named as a salt.

T1 sequence (P54289 25-1091 isoform P54289-2 limits assumed): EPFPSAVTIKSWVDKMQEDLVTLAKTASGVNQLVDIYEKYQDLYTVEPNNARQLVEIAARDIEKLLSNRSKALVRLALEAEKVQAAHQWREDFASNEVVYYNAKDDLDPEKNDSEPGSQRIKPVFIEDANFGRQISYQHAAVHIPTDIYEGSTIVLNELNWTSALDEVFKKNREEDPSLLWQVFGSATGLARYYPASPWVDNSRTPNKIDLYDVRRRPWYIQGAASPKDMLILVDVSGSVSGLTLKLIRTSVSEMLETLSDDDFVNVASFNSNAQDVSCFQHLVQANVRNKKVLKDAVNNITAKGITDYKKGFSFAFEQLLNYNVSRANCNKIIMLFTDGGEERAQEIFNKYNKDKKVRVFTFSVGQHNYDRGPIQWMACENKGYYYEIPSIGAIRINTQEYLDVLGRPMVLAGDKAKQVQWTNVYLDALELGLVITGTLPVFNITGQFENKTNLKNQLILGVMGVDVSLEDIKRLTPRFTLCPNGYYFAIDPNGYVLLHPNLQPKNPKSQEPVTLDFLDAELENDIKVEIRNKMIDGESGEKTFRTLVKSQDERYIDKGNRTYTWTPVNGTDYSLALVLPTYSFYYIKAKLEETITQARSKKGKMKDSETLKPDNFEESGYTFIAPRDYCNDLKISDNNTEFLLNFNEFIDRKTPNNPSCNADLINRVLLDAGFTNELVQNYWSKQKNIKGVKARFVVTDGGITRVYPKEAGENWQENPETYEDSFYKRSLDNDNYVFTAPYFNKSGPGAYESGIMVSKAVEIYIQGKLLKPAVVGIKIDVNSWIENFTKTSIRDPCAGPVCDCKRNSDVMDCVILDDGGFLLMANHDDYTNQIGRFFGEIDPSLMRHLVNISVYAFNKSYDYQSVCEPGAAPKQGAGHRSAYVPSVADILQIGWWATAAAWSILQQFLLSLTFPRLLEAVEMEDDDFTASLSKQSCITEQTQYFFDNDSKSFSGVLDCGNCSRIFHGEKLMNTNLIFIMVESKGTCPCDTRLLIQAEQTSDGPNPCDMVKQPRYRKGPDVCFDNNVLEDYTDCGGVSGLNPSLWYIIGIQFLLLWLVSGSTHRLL

One data set has as its target T1, human Cacna2d1 (human calcium channel subunit α2δ1) (Homo sapiens, UniProt P54289).
T1 construct: 293 cells were transfected with the human Cacna2d1 expression plasmid pRK/hCacna2d1 constructed in paragraph a); expressed in transfected cells; membrane fraction
The data set is described as follows: Cacna2d1/GBP binding reaction inhibitory activity (3H-GBP binding to human Cacna2d1-expressing cell membrane fraction). The settings on record: IC50 (nM), concentration inhibiting 50% of Cacna2d1/GBP binding, 3H-GBP 4.5 nM, 4° C. As for the experimental part:
293 cells were transfected with the human Cacna2d1 expression plasmid pRK/hCacna2d1 constructed in paragraph a), and a cell line stably expressing human Cacna2d1 was obtained with human Cacna2d1 protein expression as an index. Specifically, 2×10^6 293 cells were inoculated onto a φ6 cm dish and cultured for 12 hours. Then, the cells were cotransfected with 5 μg of pRK/hCacna2d1 and 0.5 μg of a neomycin-resistant gene expression plasmid pSV2neo (Clontech) using a transfection reagent Lipofectamine Plus (Invitrogen Corp.) according to the protocol provided for the reagent.
The human Cacna2d1-expressing 293 cells obtained in paragraph b) were cultured in large scale in DMEM (Invitrogen Corp.) supplemented with 10% fetal bovine serum (Cansera International, Inc.) and 500 μg/ml G418 (Invitrogen Corp.), and the cells were collected. A protease inhibitor (Complete EDTA free (Roche Applied Science)) was added in an amount recommended for the reagent to a binding assay buffer (10 mM MOPS (pH 7.4), 10 mM HEPES (pH 7.4), 100 mM NaCl) to prepare a membrane fraction preparation buffer. The collected cells were washed with the membrane fraction preparation buffer and then homogenized using an ultrasonicator. Then, the homogenate was centrifuged at 12,000 rpm at 4° C. for 1 hour using a centrifuge. The supernatant was discarded, and the precipitate was suspended in the membrane fraction preparation buffer. The procedure from the ultrasonication using a ultrasonicator to the suspension of the precipitate after centrifugation was further repeated three times, and the obtained suspension was used as a human Cacna2d1-expressing cell membrane fraction. The total level of proteins contained in the membrane fraction was calculated from UV absorbance at a wavelength of 280 nm.
The human Cacna2d1-expressing cell membrane fraction and GBP labeled with a radioisotope ^3H (hereinafter, referred to as ^3H-GBP; Tocris Cookson Ltd.) were diluted with a binding assay buffer (10 mM MOPS (pH 7.4), 10 mM HEPES (pH 7.4), 100 mM NaCl) at a final concentration of 2.5 mg/ml in terms of the total protein level and a final ^3H-GBP concentration of 4.5 nM, respectively, to prepare 120 μl of a reaction solution, which was in turn left standing at 4° C. for 3 hours. This reaction product was added to wells of a filter plate (UniFilter 350 GF/B (Whatman)) and filtered through the filter. Then, a washing procedure involving the addition of 350 μl of a binding assay buffer (10 mM MOPS (pH 7.4), 10 mM HEPES (pH 7.4), 100 mM NaCl) and filtration through the filter was repeated three times. The filter plate was thoroughly dried, and the underside was sealed. After addition of 50 μl of Microscint 20 (PerkinElmer Inc.), the upper surface was also sealed, and radiation derived from the radioisotope ^3H remaining on the filter was counted using TopCount (PerkinElmer Inc.). From the obtained value, a value obtained by adding unlabeled GBP (SIGMA-ALDRICH INC.) at a final concentration of 20 μM to the present assay was subtracted as that derived from nonspecific adsorption, and the obtained value was used as the specific binding level of ^3H-GBP to Cacna2d1 (unit: “count”).
Each test compound was added at various concentrations to the Cacna2d1/GBP binding reaction detection assay constructed in paragraph a), and the binding level was measured by the method described in paragraph a). Then, with the Cacna2d1/GBP specific binding level obtained by the addition of the compound at a concentration of x nM defined as “binding level [x]” and the Cacna2d1/GBP binding inhibitory rate thereagainst defined as “inhibitory rate [x]”, the inhibitory rate (%) was determined based on the following equation: Inhibitory rate [x](%)=(1−(binding level [x]/binding level))×100, wherein the binding level refers to the binding level of ^3H-GBP obtained without the addition of the compound.
The inhibitory rate was plotted against the concentration.
On to `Cl.NC[C@]1(CC(=O)O)C[C@H]2CC=C[C@H]21` [Example 6, [(1R,5S,6S)-6-(aminomethyl)bicyclo[3.2.0]hept-3-en-6-yl]acetic acid benzenesulfonate], for which the IC50 is 26 nM.
As for `CCC1=C[C@H]2[C@@H](C1)C[C@@]2(CN)CC(=O)O` (single isomer, unassigned) [Example 23], the IC50 stood at 41 nM.
`CC1=C(C)[C@H]2[C@@H](C1)C[C@@]2(CN)CC(=O)O` (racemic) [Example 20, (±)-[(1S,5R,6R)-6-aminomethyl-3,4-dimethylbicyclo[3.2.0]hept-3-en-6-yl]acetic acid p-toluenesulfonate]: the IC50 stood at 100 nM.
Same read-out and setting: the same measure for `CC(C)C1=C[C@H]2[C@@H](C1)C[C@@]2(CN)CC(=O)O` (racemic) [Example 11, (±)-[(1S,5R,6R)-6-aminomethyl-3-isopropylbicyclo[3.2.0]hept-3-en-6-yl]acetic acid]: 89 nM; for `C[C@]12C=CC[C@H]1C[C@]2(CN)CC(=O)O` (racemic) [Example 16, (±)-[(1S,5R,6S)-6-aminomethyl-5-methylbicyclo[3.2.0]hept-3-en-6-yl]acetic acid]: 65 nM.
Consider `NC[C@]1(CC(=O)O)C[C@H]2CC=C[C@H]21` [Example 2, [(1R,5S,6S)-6-(aminomethyl)bicyclo[3.2.0]hept-3-en-6-yl]acetic acid], for which the IC50 turned out to be 27 nM.
Take `NC[C@@]1(CC(=O)O)C[C@@H]2CC=C[C@@H]21` (racemic) [Example 1, (±)-[(1S,5R,6R)-6-(aminomethyl)bicyclo[3.2.0]hept-3-en-6-yl]acetic acid]: the IC50 came out at 51 nM.
In the case of `C=CCC1=C[C@H]2[C@@H](C1)C[C@@]2(CN)CC(=O)O` (racemic) [Example 15, (±)-[(1S,5R,6R)-6-aminomethyl-3-allylbicyclo[3.2.0]hept-3-en-6-yl]acetic acid], the IC50 worked out at 73 nM.
In the case of `NC[C@]1(CC(=O)O)C[C@H]2CC=C[C@H]21` [Example 5, [(1R,5S,6S)-6-(aminomethyl)bicyclo[3.2.0]hept-3-en-6-yl]acetic acid hydrochloride], the IC50 stood at 24 nM.
On to `CCC1=C[C@@H]2[C@H](C1)C[C@]2(CN)CC(=O)O` (single isomer, unassigned) [Example 21], for which the IC50 was determined as 14 nM.
`CC(C)CC1=C[C@H]2[C@@H](C1)C[C@@]2(CN)CC(=O)O` (racemic) [Example 12, (±)-[(1S,5R,6R)-6-aminomethyl-3-isobutylbicyclo[3.2.0]hept-3-en-6-yl]acetic acid]: the IC50 worked out at 32 nM.
On the same count and under the same terms, for `NC[C@@]1(CC(=O)O)C[C@@H]2CC(C3CCCC3)=C[C@@H]21` (racemic) [Example 14, (±)-[(1S,5R,6R)-6-aminomethyl-3-cyclopentylbicyclo[3.2.0]hept-3-en-6-yl]acetic acid] the value was 55 nM; for `CSCC1=C[C@H]2[C@@H](C1)C[C@@]2(CN)CC(=O)O` (racemic) [Example 24, (±)-{(1R,5R,6R)-6-aminomethyl-3-[(methylthio)methyl]bicyclo[3.2.0]hept-3-en-6-yl}acetic acid], 85 nM; for `CC1C=C[C@@H]2[C@H]1C[C@@]2(CN)CC(=O)O` (mixture of isomers) [Example 17, (±)-[(1S,5R,6R)-6-aminomethyl-2-methylbicyclo[3.2.0]hept-3-en-6-yl]acetic acid], 120 nM.
On to `CCCC1=C[C@H]2[C@@H](C1)C[C@@]2(CN)CC(=O)O` (racemic) [Example 9, (±)-[(1S,5R,6R)-6-aminomethyl-3-propylbicyclo[3.2.0]hept-3-en-6-yl]acetic acid], for which the IC50 is 32 nM.
On the same count and under the same terms, the same measure for `CCCCC1=C[C@H]2[C@@H](C1)C[C@@]2(CN)CC(=O)O` (racemic) [Example 10, (±)-[(1S,5R,6R)-6-aminomethyl-3-butylbicyclo[3.2.0]hept-3-en-6-yl]acetic acid]: 28 nM.
As to `CCC1=C[C@H]2[C@@H](C1)C[C@@]2(CN)CC(=O)O` (racemic) [Example 8, (±)-[(1S,5R,6R)-6-aminomethyl-3-ethylbicyclo[3.2.0]hept-3-en-6-yl]acetic acid], the IC50 amounted to 28 nM.
As to `CCC(C)C1=CC2C(C1)CC2(CN)CC(=O)O` (mixture of isomers) [Example 13, (±)-[(1S,5R,6R)-6-aminomethyl-3-sec-bicyclo[3.2.0]hept-3-en-6-yl]acetic acid], the IC50 is 200 nM.
For `CCC1=C[C@@H]2[C@H](C1)C[C@]2(CN)CC(=O)O` [Example 22, [(1R,5S,6S)-6-aminomethyl-3-ethylbicyclo[3.2.0]hept-3-en-6-yl]acetic acid p-toluenesulfonate], the IC50 was determined as 10 nM.
As for `CC1=C[C@H]2[C@@H](C1)C[C@@]2(CN)CC(=O)O` (racemic) [Example 7, (±)-[(1S,5R,6R)-6-aminomethyl-3-methylbicyclo[3.2.0]hept-3-en-6-yl]acetic acid], the IC50 is 36 nM.
Same read-out and setting: for `CCC1=C[C@@H]2[C@H](C1)C[C@]2(CN)CC(=O)O` [Example 31, [(1R,5S,6S)-6-(aminomethyl)-3-ethylbicyclo[3.2.0]hept-3-en-6-yl]acetic acid benzenesulfonate] the value was 14 nM.

Staying with this data set, now noted: concentration inhibiting 50% of Cacna2d1/GBP binding, 3H-GBP 4.5 nM, 4° C., read-out: IC50.
With `CC(=O)OCC1=C[C@H]2[C@@H](C1)C[C@@]2(CN)CC(=O)O` (racemic) [Example 18, (±)-[(1R,5R,6R)-3-(acetoxymethyl)-6-(aminomethyl)bicyclo[3.2.0]hept-3-en-6-yl]acetic acid], the IC50 was 670 nM.

In another data set the test system is mice suffering from mechanical hyperalgesia. As to the kind of experiment: Mechanical hyperalgesia assay (von Frey filament pain score). The format is in vivo. The settings on record: oral administration, dose that offers 50% improvement relative to the pain score of vehicle-administered group. As for the experimental part:
In the present invention, mice suffering from mechanical hyperalgesia were used in evaluation.
The mice were acclimatized for 30 minutes in a plastic cage for measurement. Then, the test compound was orally administered to the mice, which were in turn evaluated for mechanical hyperalgesia at a measurement time predetermined by a person in charge of the test. The evaluation of mechanical hyperalgesia was conducted by a partial modification of the method of Takasaki et al. (Pain 86 95-101, 2000) to confirm the effect of the test compound on mechanical hyperalgesia. Specifically, mechanical hyperalgesia was evaluated by assessing, based on scores according to the following criteria, behavior induced by pressing 1.4 g of von Frey filament onto the sole of the animal:
0: no response, 1: withdrawal from von Frey filament, and 2: shaking or licking of the hind paw immediately after the stimulation.
In one measurement, 6 stimulations were given to the mice, and the total score was used as a pain score.
The test compound was evaluated by calculating ID50, which is the dose of the compound that offers 50% improvement relative to the pain score of a vehicle-administered group.
Compound `NC[C@]1(CC(=O)O)C[C@H]2CC=C[C@H]21` [Example 2, [(1R,5S,6S)-6-(aminomethyl)bicyclo[3.2.0]hept-3-en-6-yl]acetic acid] gave an ID50 of 10.4 mg/kg.

Tested on in a further data set: not given
Assay: not given
Conditions: not given
Consider `Cl.NC[C@]1(CC(=O)O)C[C@H]2CC=C[C@H]21` [Example 6, [(1R,5S,6S)-6-(aminomethyl)bicyclo[3.2.0]hept-3-en-6-yl]acetic acid benzenesulfonate], for which the melting point fell in the range of 161 to 162 °C.
`CCC1=C[C@H]2[C@@H](C1)C[C@@]2(CNO)CC(=O)O.Cl` (racemic) yielded a melting point of 98 to 99 °C.

A further data set has as its system postherpetic neuralgia.
Assay: not given
The note with it: patients' own evaluations; Non-Patent Document 3; cited from earlier work.
With `NCC1(CC(=O)O)CCCCC1` [gabapentine], the “efficacy in the treatment of postherpetic neuralgia” value was “approximately 60%”.

The subject of another data set is painful diabetic neuropathy.
Assay: not given
The note with it: patients' own evaluations; Non-Patent Document 4; cited from earlier work.
Regarding `CC(C)C[C@H](CN)CC(=O)O` [pregabalin], the “efficacy in the treatment of painful diabetic neuropathy” value was “approximately 50%”.
